How the values were obtained:
[1] = tested on: isolated NMRI mice islets; test: Glucose stimulated insulin secretion (GSIS) from isolated NMRI mice islets; assay type: cell-based; details: 10^−8 mol/l-10^−6 mol/l, 16.7 mmol/l glucose, 60 minutes
Protocol: For in vitro studies with steviol and ISV, we included adult female NMRI mice (Taconic, Ry Denmark), all weighing 22-25 g. We used 12 hours light/dark cycle. The Danish Council for Animal experiments has approved the study.
Islets were isolated by the collagenase digestion technique. In brief, the animals were anesthetized with pentobarbital (50 mg/kg intraperitoneally) and midline laparotomy was performed. The pancreas was retrogradely filled with 3 mL ice-cold Hanks balanced salt solution (([HBSS] Sigma Chemical, St Louis, Mo.) supplemented with 0.3 mg/ml collagenase Boehringer Mannheim GmbH, Germany). The pancreas was subsequently removed and incubated for 19 minutes at 37° C. After rinsing in HBSS, the islets were handpicked under a stereomicroscope and immediately transferred to a tubes containing 1 ml Trizol (Gibco/Invitrogene, Calsbad, Calif., USA). The islets isolated from the NMRI mice were incubated overnight at 37° C. and 95% normal atmosphere/5% CO2 in 10 ml RPMI 1640 containing 11.1 mmol/L glucose supplemented with penicillin G and 100 μg/mL streptomycin (all Gibco/Invitrogene, Calsbad, Calif., USA).
The NMRI female mice islets were rinsed twice with a modified Krebs-Ringer buffer (KRB) supplemented with 3.3 mmol/L glucose and 0.1% human serum albumin (Sigma). The KRB contained 125 mmol/L NaCl, 5.9 mmol/L KCl, 1.2 MgCl, 1.28 CaCl2 and 25 mmol/L HEPES (Ph 7.4: all Sigma). Single islets were incubated in 100 μL KRB containing glucose (3.3 and 16.7 mmol/L) and steviol/ISV according to the protocols (Jeppesen et al., 2000). After incubation (60 min), 50 μL of the medium was frozen for RIA analysis of insulin.

isolated mouse islets = details: previously demonstrated (Jeppesen, P. B. et al., 2000); cited from earlier work

C=C1C[C@@]23CC[C@H]4[C@@](C)(CCC[C@@]4(C)C(=O)O)[C@@H]2CC[C@]1(O)C3 [steviol, ent-kaur-16-en-13-ol-19-oic acid]
potency on GSIS, isosteviol compared with steviol, at higher concentration [1]: not found any significant difference
insulinotropic effect on isolated mouse islets (isolated mouse islets): potent insulinotropic effect

— patent US20100093861A1, “TREATMENT OF INSULIN RESISTANCE OR DISEASES ASSOCIATED WITH INSULIN RESISTANCE” (Stevia ApS, priority 2006, published 2010)
